Test results as given in patent US11542274B1, “Therapeutic compounds and methods of use thereof” (AGENCY FOR SCIENCE, TECHNOLOGY AND RESEARCH (A*STAR), priority 2019, dated 2023).

These compounds were tested against truncated CRBN (319-427) (Homo sapiens (Human), UniProt Q96SW2) (assay: Fluorescence binding assay (fluorescence quenching), affinity to E3-CEREBLON (CRBN)-ubiquitin ligase). Settings: ubiquitination moiety and linker, pH 6.5.
Protocol: Fluorescence quenching end point measurements were performed in black polystyrene 384-plates on Tecan Safire monochromator reader with the following settings: excitation 280 nm; excitation bandwidth 10.0 nm; emission collection 340 nm; emission bandwidth 20.0 nm; high sensitivity flash mode; integration time 40 μS; delay 0 μm. All measurements were done in duplicates; GraphPad Prism 5.03 was used for data evaluation, curve fitting, plotting and determination of IC50 values.
Serial dilutions of each tested ligands were mixed with truncated CRBN (319-427) to a final volume of 25 μL in the assay buffer (20 mM sodium phosphate buffer, pH 6.5, with 150 mM sodium chloride). The final concentration of CRBN in all assay will be 5-10 μM with DMSO level at 4%. A control lanes were prepared with only tested ligands without the addition of CRBN, top up with assay buffer to 25 μL. Plates were incubated for 5 minutes and analyzed using the monochromator plate reader.
IC50 is the compound concentration that causes 50% quenching of the desired activity.

truncated CRBN (319-427), sequence (Q96SW2 319-427): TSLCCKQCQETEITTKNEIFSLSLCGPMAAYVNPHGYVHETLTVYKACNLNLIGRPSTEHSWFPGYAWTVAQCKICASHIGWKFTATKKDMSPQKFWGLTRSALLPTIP

| IC50 [µM] | Compound |
| --- | --- |
| 100 to 300 | [N-]=[N+]=NCCOCCOCCOCCNc1ccc(-c2ccc3c(c2)NC(=O)C3)cn1 [Compound 089, 6-(6-((2-(2-(2-(2-azidoethoxy)ethoxy)ethoxy)ethyl)amino)pyridin-3-yl)indolin-2-one] |
| 100 to 300 | Nc1ccc(OCCOCCOCCOCCNC(=O)c2cccc(-c3ccc4c(c3)NC(=O)C4)c2)cc1 [Compound 090, N-(2-(2-(2-(2-(4-aminophenoxy)ethoxy)ethoxy)ethoxy)ethyl)-3-(2-oxoindolin-6-yl)benzamide] |
| 1 to 100 | Nc1ccc(OCCOCCOCCOCCNC(=O)c2cccc(-c3ccc4c(c3)CC(=O)N4)c2)cc1 [Compound 091, N-(2-(2-(2-(2-(4-aminophenoxy)ethoxy)ethoxy)ethoxy)ethyl)-3-(2-oxoindolin-5-yl)benzamide] |
| 1 to 100 | [N-]=[N+]=NCCOCCOCCOCCNc1ccc(-c2ccc3c(c2)CC(=O)N3)cn1 [Compound 092, 5-(6-((2-(2-(2-(2-azidoethoxy)ethoxy)ethoxy)ethyl)amino)pyridin-3-yl)indolin-2-one] |
| 1 to 100 | Nc1ccc(OCCOCCOCCOCCNc2ccc(-c3ccc4c(c3)CC(=O)N4)cn2)cc1 [Compound 093, 5-(6-((2-(2-(2-(2-(4-aminophenoxy)ethoxy)ethoxy)ethoxy)ethyl)amino)-pyridin-3-yl)indolin-2-one] |
| 100 to 300 | [N-]=[N+]=NCCOCCOCCOCCNc1ncccc1-c1ccc2c(c1)CC(=O)N2 [Compound 094, 5-(2-((2-(2-(2-(2-azidoethoxy)ethoxy)ethoxy)ethyl)amino)pyridin-3-yl)indolin-2-one] |
| > 300 | [N-]=[N+]=NCCOCCOCCOCCNc1ncccc1-c1ccc2c(c1)NC(=O)C2 [Compound 095, 6-(2-((2-(2-(2-(2-azidoethoxy)ethoxy)ethoxy)ethyl)amino)pyridin-3-yl)indolin-2-one] |

Same assay, conditions: ubiquitination moiety, pH 6.5

| IC50 [µM] | Compound |
| --- | --- |
| > 300 | N-(1-acetylpiperidin-4-yl)-2-oxoindoline-6-carboxamide [Compound 026] |

Each compound was assayed on RAMOS cells (Burkitt's lymphoma cell line) (assay: Anti-proliferation assay (CellTiter-Glo)). Settings: Homo sapiens, 72 h, 3 days.
Type: cell-based
Protocol: In cell growth experiments, cells were seeded in 96-well cell culture plates at a density of 3000 of RAMOS cells/well in 100 μL of culture medium. 100 μL of the diluted solution containing the tested compound was added to the appropriate wells of the cell plate. After addition of the tested compound, the cells were incubated at 37° C. in an atmosphere of 5% CO2 for 3 days. CellTiter-Glo (CTG) reagent from the Promega CellTiter-Glo Luminescent Cell Viability Assay kit (#G7572) was added into an OptiPlate 96 (Perkin Elmer, White, Opaque, #6005299) in the dark, incubated for at least 2 hrs, and luminescence signal was read using Tecan Safire II Multi-Mode Plate Reader. The GI50 was calculated by nonlinear regression analysis using GraphPad Prism5 software.
GI50 is the concentration for 50% of maximal inhibition of cell proliferation.

| GI50 [µM] | Compound |
| --- | --- |
| 0.001 to 0.1 | Cc1sc2c(c1C)C(c1ccc(Cl)cc1)=N[C@@H](CC(=O)Nc1ccc(OCCOCCOCCOCCNc3ccc(-c4ccc5c(c4)CC(=O)N5)cn3)cc1)c1nnc(C)n1-2 [Compound 098, (S)-2-(4-(4-chlorophenyl)-2,3,9-trimethyl-6H-thieno[3,2-f][1,2,4]triazolo[4,3-a][1,4]diazepin-6-yl)-N-(4-(2-(2-(2-(2-((5-(2-oxoindolin-5-yl)pyridin-2-yl)amino)ethoxy)ethoxy)ethoxy)ethoxy)phenyl)acetamide] |
| 0.001 to 0.1 | Cc1sc2c(c1C)C(c1ccc(Cl)cc1)=N[C@@H](CC(=O)NCCOCCOCCOCCNc1ccc(-c3ccc4c(c3)CC(=O)N4)cn1)c1nnc(C)n1-2 [Compound 099, (S)-2-(4-(4-chlorophenyl)-2,3,9-trimethyl-6H-thieno[3,2-f][1,2,4]triazolo[4,3-a][1,4]diazepin-6-yl)-N-(2-(2-(2-(2-((5-(2-oxoindolin-5-yl)pyridin-2-yl)amino)ethoxy)ethoxy)ethoxy)ethyl)acetamide] |
| 0.1 to 1 | Cc1sc2c(c1C)C(c1ccc(Cl)cc1)=N[C@@H](CC(=O)NCCOCCOCCOCCNc1ccc(-c3ccc4c(c3)NC(=O)C4)cn1)c1nnc(C)n1-2 [Compound 100, (S)-2-(4-(4-chlorophenyl)-2,3,9-trimethyl-6H-thieno[3,2-f][1,2,4]triazolo[4,3-a][1,4]diazepin-6-yl)-N-(2-(2-(2-(2-((5-(2-oxoindolin-6-yl)pyridin-2-yl)amino)ethoxy)ethoxy)ethoxy)ethyl)acetamide] |
| 0.1 to 1 | Cc1sc2c(c1C)C(c1ccc(Cl)cc1)=N[C@@H](CC(=O)NCCOCCOCCOCCNc1ccc(C(=O)Nc3ccc4c(c3)CC(=O)N4)cn1)c1nnc(C)n1-2 [Compound 101, (S)-6-((1-(4-(4-chlorophenyl)-2,3,9-trimethyl-6H-thieno[3,2-f][1,2,4]triazolo[4,3-a][1,4]diazepin-6-yl)-2-oxo-6,9,12-trioxa-3-azatetradecan-14-yl)amino)-N-(2-oxoindolin-5-yl)nicotinamide] |
| 0.1 to 1 | Cc1sc2c(c1C)C(c1ccc(Cl)cc1)=N[C@@H](CC(=O)Nc1ccc(OCCOCCOCCOCCNC(=O)c3cccc(-c4ccc5c(c4)NC(=O)C5)c3)cc1)c1nnc(C)n1-2 [Compound 102, (S)—N-(2-(2-(2-(2-(4-(2-(4-(4-chlorophenyl)-2,3,9-trimethyl-6H-thieno[3,2-f][1,2,4]triazolo[4,3-a][1,4]diazepin-6-yl)acetamido)phenoxy)ethoxy)ethoxy)ethoxy)ethyl)-3-(2-oxoindolin-6-yl)benzamide] |
| 0.1 to 1 | Cc1sc2c(c1C)C(c1ccc(Cl)cc1)=N[C@@H](CC(=O)Nc1ccc(OCCOCCOCCOCCNC(=O)c3cccc(-c4ccc5c(c4)CC(=O)N5)c3)cc1)c1nnc(C)n1-2 [Compound 103, (S)—N-(2-(2-(2-(2-(4-(2-(4-(4-chlorophenyl)-2,3,9-trimethyl-6H-thieno[3,2-f][1,2,4]triazolo[4,3-a][1,4]diazepin-6-yl)acetamido)phenoxy)ethoxy)ethoxy)ethoxy)ethyl)-3-(2-oxoindolin-5-yl)benzamide] |
| 0.001 to 0.1 | Cc1sc2c(c1C)C(c1ccc(Cl)cc1)=N[C@@H](CC(=O)Nc1ccc(OCCOCCOCCOCCNc3ccc(-c4ccc5c(c4)CC(=O)N5)cc3)cc1)c1nnc(C)n1-2 [Compound 104, (S)-2-(4-(4-chlorophenyl)-2,3,9-trimethyl-6H-thieno[3,2-f][1,2,4]triazolo[4,3-a][1,4]diazepin-6-yl)-N-(4-(2-(2-(2-(2-((4-(2-oxoindolin-5-yl)phenyl)amino)ethoxy)ethoxy)ethoxy)ethoxy)phenyl)acetamide] |
| 0.001 to 0.1 | Cc1sc2c(c1C)C(c1ccc(Cl)cc1)=N[C@@H](CC(=O)Nc1ccc(OCCOCCNC(=O)c3cccc(-c4ccc5c(c4)CC(=O)N5)c3)cc1)c1nnc(C)n1-2 [Compound 106, (S)—N-(2-(2-(4-(2-(4-(4-chlorophenyl)-2,3,9-trimethyl-6H-thieno[3,2-f][1,2,4]triazolo[4,3-a][1,4]diazepin-6-yl)acetamido)phenoxy)ethoxy)ethyl)-3-(2-oxoindolin-5-yl)benzamide] |
| 0.001 to 0.1 | Cc1sc2c(c1C)C(c1ccc(Cl)cc1)=N[C@@H](CC(=O)NCCOCCOCCOCCNc1ncccc1-c1ccc3c(c1)CC(=O)N3)c1nnc(C)n1-2 [Compound 107, (S)-2-(4-(4-chlorophenyl)-2,3,9-trimethyl-6H-thieno[3,2-f][1,2,4]triazolo[4,3-a][1,4]diazepin-6-yl)-N-(2-(2-(2-(2-((3-(2-oxoindolin-5-yl)pyridin-2-yl)amino)ethoxy)ethoxy)ethoxy)ethyl)acetamide] |
| 0.1 to 1 | Cc1sc2c(c1C)C(c1ccc(Cl)cc1)=N[C@@H](CC(=O)NCCOCCOCCOCCNc1ncccc1-c1ccc3c(c1)NC(=O)C3)c1nnc(C)n1-2 [Compound 108, (S)-2-(4-(4-chlorophenyl)-2,3,9-trimethyl-6H-thieno[3,2-f][1,2,4]triazolo[4,3-a][1,4]diazepin-6-yl)-N-(2-(2-(2-(2-((3-(2-oxoindolin-6-yl)pyridin-2-yl)amino)ethoxy)ethoxy)ethoxy)ethyl)acetamide] |
| 0.001 to 0.1 | Cc1sc2c(c1C)C(c1ccc(Cl)cc1)=N[C@@H](CC(=O)NCCOCCOCCOCCC(=O)NC1CCN(C(=O)c3ccc4c(c3)CC(=O)N4)CC1)c1nnc(C)n1-2 [Compound 109, (S)-3-(2-(2-(2-(2-(4-(4-chlorophenyl)-2,3,9-trimethyl-6H-thieno[3,2-f][1,2,4]triazolo[4,3-a][1,4]diazepin-6-yl)acetamido)ethoxy)ethoxy)ethoxy)-N-(1-(2-oxoindoline-5-carbonyl)piperidin-4-yl)propanamide] |

Further lines, the compound ahead of its results:

| Compound | GI50 [µM] |
| --- | --- |
| Cc1sc2c(c1C)C(c1ccc(Cl)cc1)=N[C@@H](CC(=O)NCCCCCNc1cc(-c3ccc4c(c3)NC(=O)C4)ccn1)c1nnc(C)n1-2 [Compound 096, (S)-2-(4-(4-chlorophenyl)-2,3,9-trimethyl-6H-thieno[3,2-f][1,2,4]triazolo[4,3-a][1,4]diazepin-6-yl)-N-(5-((4-(2-oxoindolin-6-yl)pyridin-2-yl)amino)pentyl)acetamide] | 0.1 to 1 |
| Cc1sc2c(c1C)C(c1ccc(Cl)cc1)=N[C@@H](CC(=O)NCCOCCOCCOCCNc1cc(-c3ccc4c(c3)CC(=O)N4)ccn1)c1nnc(C)n1-2 [Compound 097, (S)-2-(4-(4-chlorophenyl)-2,3,9-trimethyl-6H-thieno[3,2-f][1,2,4]triazolo[4,3-a][1,4]diazepin-6-yl)-N-(2-(2-(2-(2-((4-(2-oxoindolin-5-yl)pyridin-2-yl)amino)ethoxy)ethoxy)ethoxy)ethyl)acetamide] | > 1 |
| Cc1sc2c(c1C)C(c1ccc(Cl)cc1)=N[C@@H](CC(=O)NCCCCCNc1ncccc1-c1ccc3c(c1)CC(=O)N3)c1nnc(C)n1-2 [Compound 105, (S)-2-(4-(4-chlorophenyl)-2,3,9-trimethyl-6H-thieno[3,2-f][1,2,4]triazolo[4,3-a][1,4]diazepin-6-yl)-N-(5-((3-(2-oxoindolin-5-yl)pyridin-2-yl)amino)pentyl)acetamide] | 0.001 to 0.1 |
